Results reported in PubChem BioAssay (NCI).
Values joined by “and” are separate entries in the source; they are usually repeats but may differ in a detail not shown here. Equal values may be shown once.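 48-hour exposure; five concentrations; linearly interpolated endpoints. Abbreviation: GI50, concentration required for 50% inhibition of growth. TGI marks complete inhibition of growth.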

Columns and labels:
Assay in all cases: NCI tumour cell line growth inhibition, 48 h
LOX IMVI melanoma = system: LOX IMVI melanoma
SN12C renal = system: SN12C renal
COLO 205 colon = system: COLO 205 colon
HCT-15 colon = system: HCT-15 colon
HL-60(TB) leukemia = system: HL-60(TB) leukemia
786-0 renal = system: 786-0 renal
NCI-H460 lung = system: NCI-H460 lung
IGROV1 ovarian = system: IGROV1 ovarian
SW-620 colon = system: SW-620 colon
M19-MEL melanoma = system: M19-MEL melanoma

| SMILES | TGI (LOX IMVI melanoma) | TGI (SN12C renal) | TGI (COLO 205 colon) | TGI (HCT-15 colon) | TGI (HL-60(TB) leukemia) | TGI (786-0 renal) | TGI (NCI-H460 lung) | TGI (IGROV1 ovarian) | TGI (SW-620 colon) | GI50 (LOX IMVI melanoma) | GI50 (SN12C renal) | GI50 (COLO 205 colon) | GI50 (HCT-15 colon) | GI50 (HL-60(TB) leukemia) | GI50 (786-0 renal) | GI50 (NCI-H460 lung) | GI50 (IGROV1 ovarian) | GI50 (SW-620 colon) | TGI (M19-MEL melanoma) | GI50 (M19-MEL melanoma) |
| --- | --- | --- | --- | --- | --- | --- | --- | --- | --- | --- | --- | --- | --- | --- | --- | --- | --- | --- | --- | --- |
| NC(=S)N=Nc1c(O)[nH]c2c(Cl)cc(Cl)cc12 | 48 µM | 52.8 µM | 41.8 µM | > 100 µM | 49.6 µM | 92.9 µM | > 100 µM | > 100 µM | > 100 µM |  |  |  |  |  |  |  |  |  |  |  |
| CC(C)(C)OC(=O)NCCCCn1c2c(c3ccccc3c1=O)C(=O)c1ccccc1-2 | 36.7 µM | 69.3 µM | > 100 µM | > 100 µM | 59.4 µM | 55.6 µM | 34.8 µM | > 100 µM | > 100 µM | 12.5 µM | 23.1 µM | 44 µM | 35.3 µM | 4.71 µM | 21.7 µM | 5.9 µM | 23 µM | 25.3 µM |  |  |
| Cc1ccc(C(=O)c2sc3nc4c(cc3c2N)CCCC4)c(C)c1 | > 100 µM | > 100 µM | 5.07 µM | > 100 µM | > 38.8 µM | > 100 µM | > 100 µM | > 100 µM | > 100 µM | 0.502 µM | 0.841 µM | 0.899 µM | 0.159 µM | 0.263 µM | 0.617 µM | 0.348 µM | 1.23 µM | 0.265 µM |  |  |
| O=c1c2cc(Br)cc(Br)c2nc(CCCl)n1-c1ccc(O)c([N+](=O)[O-])c1 |  | 31.8 µM | 36.3 µM | 38.1 µM | 42.9 µM | 32.4 µM | 42.1 µM | 40.4 µM | 36.2 µM |  |  |  |  |  |  |  |  |  | 29.8 µM |  |
| Cc1cccc(C)c1NC(=O)CCc1nnc2s/c(=C\c3ccc(N(C)C)cc3)c(=O)n12 | > 100 µM | > 100 µM | > 100 µM | > 100 µM | > 100 µM | > 100 µM | > 100 µM | > 100 µM | > 100 µM |  |  |  |  |  |  |  |  |  |  |  |
| COc1ccc(C(C)c2cc(OC)c(OC)c(OC)c2)cc1 (stereo unspecified) | > 50 µM | > 50 µM | 0.325 µM | > 50 µM | 0.374 µM | > 50 µM | > 50 µM | > 50 µM | > 50 µM | 0.537 µM | 0.546 µM | 0.109 µM | 0.088 µM | 0.0979 µM | 0.213 µM | 0.177 µM | 0.278 µM | 0.0581 µM |  |  |
| CCOC(=O)C(=O)Nc1cc(Cl)c(Cl)cc1Cl | > 100 µM | > 100 µM | > 100 µM | > 100 µM |  | > 100 µM | > 100 µM | > 100 µM | > 100 µM |  |  |  |  |  |  |  |  |  | > 100 µM |  |
| CCN(CC)c1c(-c2ccccc2)n[nH]c1C(=O)OC | > 100 µM | 40.3 µM | 64 µM | 40.9 µM | 48.8 µM | 96.2 µM | > 100 µM | > 100 µM | > 100 µM | 35.3 µM | 24.4 µM | 17.7 µM | 19 µM | 18.7 µM | 32.7 µM | 30.3 µM | 50.8 µM | 26.6 µM |  |  |
| O=C1C(=C2CCCC2)CCC1CN1CCCCC1 (stereo unspecified) |  | 30.6 µM | 73.5 µM | 31.2 µM | 21.9 µM | 26.4 µM |  | 36.3 µM | 32.1 µM |  |  |  |  |  |  |  |  |  | > 100 µM |  |
| N#Cc1ccc(-c2c(-c3ncn[nH]3)sc(N3CCOCC3)c2C#N)c(F)c1 | 13.1 µM | > 100 µM | 15.6 µM | 18.5 µM | > 100 µM | 12.1 µM | 23.6 µM | 0.948 µM | 29.9 µM | 0.546 µM | 0.835 µM | 0.687 µM | 0.596 µM | 0.781 µM | 0.457 µM | 0.419 µM | 0.181 µM | 2.94 µM |  |  |
| C[C@H]1C/C=C/[C@H]2[C@@H]3O[C@]3(C)[C@@H](C)[C@H]3[C@H](Cc4ccccc4)NC(=O)[C@]32OC(=O)O/C=C/[C@@](C)(O)C1=O |  |  | 49.2 µM and 98.6 µM and 70.8 µM | 56.6 µM | 11.3 µM and 2.95 µM and 4.97 µM | 63.5 µM | 43.8 µM and 125 µM and 36.9 µM | > 33.5 µM and 125 µM and > 250 µM |  | < 0.01 µM and 0.025 µM | < 0.025 µM | 0.0194 µM and 0.0125 µM and 0.025 µM |  | 0.153 µM and 0.0973 µM |  | 0.0125 µM and 0.025 µM | 0.0703 µM and 0.0723 µM and 0.025 µM |  | 24.2 µM and 38.9 µM and 56.8 µM | 0.0356 µM and 0.025 µM |
| CCOC(=O)C(Cc1c[nH]c2cc(N(CCO)CCO)ccc12)(NC(C)=O)C(=O)OCC | > 1000 µM | > 1000 µM | > 1000 µM | > 1000 µM | 489 µM | > 1000 µM | > 1000 µM | > 1000 µM | > 1000 µM | 217 µM | 379 µM | 274 µM | 758 µM | 133 µM | 919 µM | 433 µM | 445 µM | 398 µM |  |  |
| COc1cc(-n2cc(-c3ccccc3)[nH]c2=O)cc(OC)c1OC | > 100 µM | > 100 µM | > 100 µM | > 100 µM | > 100 µM | 91.1 µM | > 100 µM | > 100 µM | > 100 µM | > 100 µM | 47.6 µM | > 100 µM | 85.2 µM | 60.3 µM | 23.7 µM | 52.2 µM | > 100 µM | > 100 µM |  |  |
| O=C(O)C1CC=CCC1C(=O)Nc1cccc(O)c1 (stereo unspecified) | > 100 µM | > 100 µM | > 100 µM | > 100 µM | > 100 µM | > 100 µM | > 100 µM | > 100 µM | > 100 µM |  |  |  |  |  |  |  |  |  |  |  |
| CC(=O)Oc1ccc2c(c1)[C@@]1(C)CCCC(C)(C)[C@@H]1CC2 | 32.1 µM | 33.1 µM | 53.6 µM | 37.3 µM | > 100 µM | 32.8 µM | 90.5 µM | > 100 µM | > 100 µM | 17.7 µM | 18.6 µM | 21.9 µM | 19.5 µM | 34.7 µM | 18.1 µM | 27.5 µM | 49.4 µM | 28.2 µM |  |  |
